Source: PMC6270921, “Study on the Cytotoxic Activity of Drimane Sesquiterpenes and Nordrimane Compounds against Cancer Cell Lines” (Molecules, 2014)

What was measured:
[1] = tested on: DU-145 prostate cancer cell line; assay: Cell viability, sulforhodamine B assay; format: cell-based; settings: Homo sapiens, 72 h exposure, dilutions 12.5 to 100 μM, read-out: Cytotoxicity IC50, DU145
Method: (§1) The cytotoxicity of compounds 1–12 was evaluated in vitro against different cancer cell lines: MCF-7 breast cancer, DU-145 and PC-3 human prostate cancer, and one non-tumor cell line, human colon epithelial cells CCD 841 CoN (CoN). […] Four serial dilutions (from 12.5 to 100 μM) for each sample were evaluated in triplicate.
(§2) The experimental cell cultures were obtained from the American Type Culture Collection (Rockville, MD, USA). MCF-7 cells (breast cancer cell line), PC-3 and DU-145 (prostate cancer cell lines), and human colon epithelial cells CCD 841 CoN (non-tumoral cell line) were grown in Dulbecco’s modified Eagle’s medium (DMEM) containing 10% FCS, 100 U/mL penicillin, 100 μg/mL streptomycin, and 1 mM glutamine. Cells were seeded into 96 well microtiter plates in 100 μL at a plating density of 5 × 10^3 cells/well. After 24 h incubation at 37 °C under a humidified 5% CO2 atmosphere to allow cell attachment, the cells were treated with different concentrations of drugs and incubated for 72 h under the same conditions. Stock solutions of compounds were prepared in ethanol and the final concentration of this solvent was kept constant at 1%. Control cultures received 1% ethanol alone.
(§3) The sulforhodamine B assay was used according to the method of Skehan et al.. Briefly, the cells were set up at 3 × 10^3 cells per well of a 96 200 μL well, flat-bottomed, microplate. Cells were incubated at 37 °C in a humidified 5% CO2/95% air mixture and treated with the compounds at different concentrations for 72 h. At the end of drug exposure, cells were fixed with 50% trichloroacetic acid at 4 °C. After washing with water, cells were stained with 0.1% sulforhodamine B (Sigma-Aldrich, St. Louis, MO, USA), dissolved in 1% acetic acid (50 μL/well) for 30 min, and subsequently washed with 1% acetic acid to remove unbound stain. Protein-bound stain was solubilized with 100 μL of 10 mM unbuffered Tris base, and the cell density was determined using a […] plate reader (wavelength 540 nm). Values shown are the mean ± SD of three independent experiments in triplicate. The software used to calculate the IC50 values was GraphPad (GraphPad Software, San Diego, CA, USA).

[2] = tested on: MCF-7 breast cancer cell line; assay: Cell viability, sulforhodamine B assay; format: cell-based; settings: Homo sapiens, MCF7, 72 h exposure, dilutions 12.5 to 100 μM, read-out: Cytotoxicity IC50, MCF-7
Method: as §1, §2, §3

[3] = Cell viability, sulforhodamine B assay; format: cell-based; settings: human, CCD 841 CoN colon epithelial cells (non-tumoral cell line), 72 h exposure, dilutions 12.5 to 100 μM, non-tumor cell line, read-out: Cytotoxicity IC50, CoN
Method: as §1, §2, §3

[4] = tested on: PC-3 prostate cancer cell line; assay: Cell viability, sulforhodamine B assay; format: cell-based; settings: Homo sapiens, 72 h exposure, dilutions 12.5 to 100 μM, read-out: Cytotoxicity IC50, PC-3
Method: as §1, §2, §3

[5] = tested on: CoN cells; assay: Morphological changes, phase contrast microscope; format: cell-based, human; settings: 50 μM compound for 24 h
Method: (§4) First, the appearance of morphological changes in the cells treated with 50 μM compound for 24 h was analyzed.

[6] = tested on: MCF-7 cells; assay: Morphological changes, phase contrast microscope; format: cell-based, human; settings: MCF-7, 50 μM compound for 24 h
Method: as §4

[7] = tested on: PC-3 cells; assay: Morphological changes, phase contrast microscope; format: cell-based, human; settings: PC-3, 50 μM compound for 24 h
Method: as §4

[8] = tested on: caspase-3 in PC-3 cells; assay: Caspase 3 activity assay (colorimetric, DEVD-pNA); format: cell-based, human; settings: PC-3, compound 50 μM; control 1% ethanol
Text: (§5) Depletion of mitochondrial membrane potential leads to the release of apoptogenic factors, such as cytochrome c in the apoptotic cascade, and activation of caspases. Then we investigated the effects of our compounds on caspase activity. We focused on caspase-3, which is a main executor of apoptosis playing a central role in its biological processing. We analyzed the effect of treatment with the compound 1, 8 and 12 on caspase-3 activation in normal and cancer cells. […] Compound 1 increased the activity of caspase-3 by 3.4 ± 0.1, 1.4 ± 0.1 and 2.8 ± 0.1 times versus control cells in MCF-7 (black), CoN (white) and PC-3 (gray) cells, respectively. Compound 8 increased the activity of caspase 3 by 2.4 ± 0.1, 1.3 ± 0.2 and 2.7 ± 0.1 times versus control cells in MCF-7 (black), CoN (white) and PC-3 (gray) cells, respectively.
(§6) Caspase activity was measured using a colorimetric assay. Briefly, the cells exposed to compounds were collected by centrifugation at 1000 rpm and lysed with lysis buffer (1% Triton X-100, 0.32 M sucrose, 5 mM EDTA, 10 mM Tris–HCl, pH 8.0, 2 mM dithiothreitol, 1 mM PMSF, […] aprotinin, 1 mg/mL leupeptin). Thereafter, the lysates were transferred to wells in a 96-well microplate and were incubated with DEVD-pNA (final concentration 200 μM) specific for caspase-3/7, at 37 °C for 1 h. The intensity of the developed color was read at 405 nm in a microplate reader (SpectraMax, Winooski, VT, USA). The results are expressed as percentages of the control level.

[9] = tested on: caspase-3 in MCF-7 cells; assay: Caspase 3 activity assay (colorimetric, DEVD-pNA); format: cell-based, human; settings: MCF-7, compound 50 μM; control 1% ethanol
Text: as §5, §6

[10] = tested on: caspase-3 in CoN cells; assay: Caspase 3 activity assay (colorimetric, DEVD-pNA); format: cell-based, human; settings: compound 50 μM, control 1% ethanol
Text: as §5, §6

[11] = tested on: CoN cells; assay: Mitochondrial membrane permeability, rhodamine 123 flow cytometry; format: cell-based, human; settings: control treated cells assigned 100%
Text: (§7) Mitochondria play a crucial role in the apoptotic cascade by serving as a convergent center of apoptotic signals originating from both the extrinsic and intrinsic pathways. Changes induced in the mitochondrial membrane potential (MMP) have been reported previously to represent a determinant in the execution of cell death. As polygodial has been described as an inhibitor of mitochondrial ATPase and also as nonionic surfactant. This effect may be determinant in cell death, we has analyzed the effect of compounds 1, 8 and 12 on the mitochondrial membrane potential using flow cytometry with rhodamine 123 stain [24]. […] Similar differences were observed after treatments with compounds 1 and 8 at 100 μM.
(§8) Rhodamine 123, a cationic, voltage-sensitive probe that reversibly accumulates in mitochondria, was used to detect changes in transmembrane mitochondrial membrane potentials. Cells were labelled with 1 μM rhodamine 123 at 37 °C in cell medium for 60 min before terminating the experiment. Cells were detached from the plate, after washing with ice cold PBS, and the samples were analyzed by flow cytometry. Data are expressed in percentage of cells with rhodamine 123 [24].

[12] = tested on: MCF-7 cells; assay: as above; format: cell-based, human; settings: control treated cells assigned 100%
Text: as §7, §8

[13] = tested on: PC-3 cells; assay: as above; format: cell-based, human; settings: control treated cells assigned 100%
Text: as §7, §8

[14] = tested on: CoN cells; assay: Morphological assessment of cell apoptosis, Hoechst 33342 staining; format: cell-based, human; settings: 24 h exposure, fluorescence microscope
Method: (§9) Nuclear changes in PC-3, MCF-7 and CoN cells were observed under a fluorescence microscope (200×, Figure 4).
(§10) Briefly, on 24-well chamber slides, 1 × 10^4 cells/mL were cultured and exposed to compounds for 24 h. The control group was also exposed to 1% ethanol. The cells were washed twice with phosphate buffer solution, fixed with 3.7% formaldehyde, and washed again with phosphate buffer solution. Following the addition of 1 μM Hoechst 33342 (Sigma-Aldrich, Santiago, Chile), they were reacted in a dark room at room temperature for 30 min. After washing, they were examined under an immunofluorescence microscope (IX 81 model inverted microscope, Olympus, Santiago, Chile).

[15] = tested on: MCF-7 cells; assay: as above; format: cell-based, human; settings: MCF-7, 24 h exposure, fluorescence microscope
Method: as §9, §10

[16] = tested on: PC-3 cells; assay: as above; format: cell-based, human; settings: PC-3, 24 h exposure, fluorescence microscope
Method: as §9, §10

[17] = tested on: panel of cancer cell lines; assay: Cytotoxicity against a panel of cancer cell lines (summary); format: cell-based; settings: Homo sapiens; summary statement of the conclusions
Method: as §1, §3

Row | Structure (SMILES) | IC50 [1] | IC50 [2] | IC50 at 72 h [3] | IC50 [4] | morphological changes of cells [5] | morphological changes of cells [6] | morphological changes of cells [7] | increase of caspase-3 activity [8] | increase of caspase-3 activity [9] | increase of caspase-3 activity [10] | percentage of rhodamine 123 stained cells ([11]; compound 50 µM) | percentage of rhodamine 123 stained cells ([11]; compound 100 µM) | percentage of rhodamine 123 stained cells ([12]; MCF-7, compound 50 µM) | percentage of rhodamine 123 stained cells ([12]; MCF-7, compound 100 µM) | percentage of rhodamine 123 stained cells ([13]; PC-3, compound 100 µM) | IC50 [17] | other results
1 | CC1=CC[C@H]2C(C)(C)CCC[C@]2(C)[C@H]1CO [Compound 3, drimenol] | > 200 µM | > 200 µM | > 200 µM | > 200 µM |  |  |  |  |  |  |  |  |  |  |  |  | 
2 | CC1(C)CCC[C@]2(C)C3=C(CC[C@@H]12)C(=O)OC3 [Compound 4, confertifolin] | > 200 µM | > 200 µM | > 200 µM | > 200 µM |  |  |  |  |  |  |  |  |  |  |  |  | 
3 | CC1(C)CCC[C@]2(C)[C@@H](C3OCCO3)C(C=O)=CC[C@@H]12 [Compound 8] | 70.6 ± 5.9 µM | 97.1 ± 7.2 µM | > 200 µM | 65.4 ± 5.5 µM | severely distorted | severely distorted | severely distorted | 2.7 ± 0.1 times versus control cells | 2.4 ± 0.1 times versus control cells | 1.3 ± 0.2 times versus control cells | 96.0% ± 7.6% | 52.3 ± 8.4 % | 93.3% ± 7.1% | 72.3 ± 6.4 % | 92.8 ± 10.4% | < 200 µM | percentage of rhodamine 123 stained cells ([11]; compound 50 µM, listed as Comp. 8): 96.0 ± 7.6%; percentage of rhodamine 123 stained cells ([12]; MCF-7, compound 50 µM, listed as Comp. 8): 93.3 ± 7.1%; percentage of rhodamine 123 stained cells ([13]; PC-3, compound 50 µM, listed as Comp. 8): 136.2 ± 18.5%; nuclear changes after Hoechst 33342 staining [14]: chromatin condensation and karyopyknosis; nuclear changes after Hoechst 33342 staining [15]: chromatin condensation and karyopyknosis; nuclear changes after Hoechst 33342 staining [16]: chromatin condensation and karyopyknosis
4 | CC1(C)CCC[C@]2(C)[C@@H](CO)C(CO)=CC[C@@H]12 [Compound 7, 9β-drimendiol] | > 200 µM | > 200 µM | > 200 µM | > 200 µM |  |  |  |  |  |  |  |  |  |  |  |  | 
5 | CC1(C)CCCC2(C)C1CC(=O)C1(C)OC12 (stereo not drawn) [Compound 12, 8α,9α-epoxi-11-nordriman-7-one] | > 200 µM | 88.4 ± 7.1 µM | > 200 µM | 90.2 ± 8.8 µM | severely distorted | severely distorted | severely distorted | did not change | did not change | did not change | 102.6 ± 9.1% | 124.9 ± 9.7% | 111.4 ± 8.9% | 111.3 ± 9.8% | 149.3 ± 21.3% | < 200 µM | percentage of rhodamine 123 stained cells ([13]; PC-3, compound 50 µM): 139.1 ± 12.4%
6 | CC1(C)CCC[C@]2(C)C3=C(CC[C@@H]12)COC3=O [Compound 5, isodrimenin] | 90.5 ± 8.2 µM | > 200 µM | > 200 µM | 87.6 ± 9.2 µM |  |  |  |  |  |  |  |  |  |  |  | < 200 µM | 
